≈ marks a conversion by molar mass, not a printed value.
System: MRC5
Assay: Cytotoxicity against human MRC5 cells assessed as cell viability after 72 hrs by fluorimetric analysis
Format: ADME, cell-based
Details: MRC5, 72 h

**Q.** Which IC50 does the source give for `O=[N+]([O-])c1cn2c(n1)OC(COc1ncc(C(F)(F)F)cn1)CC2` (stereo not drawn) here?
**A.** > 64 µM

**Q.** Which IC50 does the source give for `CC1(COc2ccc(Oc3ccccc3)cc2)CCn2cc([N+](=O)[O-])nc2O1` (stereo not drawn) here?
**A.** > 64 µM

**Q.** Which IC50 does the source give for `CC1(COc2ccc(F)cn2)CCn2cc([N+](=O)[O-])nc2O1` (stereo not drawn) here?
**A.** > 64 µM

**Q.** For `CC1(COc2ncc(Cl)cn2)CCn2cc([N+](=O)[O-])nc2O1` (stereo not drawn), which IC50 is on record?
**A.** > 64 µM

**Q.** Which IC50 does the source give for `CC1(COc2ncc(C(F)(F)F)cn2)CCn2cc([N+](=O)[O-])nc2O1` (stereo not drawn) here?
**A.** > 64 µM

**Q.** For `CC1(COc2ccc(F)nc2)CCn2cc([N+](=O)[O-])nc2O1` (stereo not drawn), which IC50 is on record?
**A.** > 64 µM

**Q.** Which IC50 does the source give for `CC1(COc2cnc(C(F)(F)F)cn2)CCn2cc([N+](=O)[O-])nc2O1` (stereo not drawn) here?
**A.** > 64 µM

System: Leishmania infantum
Assay: Antileishmanial activity against Leishmania infantum MHOM/MA(BE)/67 amastigotes infected in macrophages assessed as reduction in parasite burden by giemsa staining based microscopic analysis
Format: functional, organism-based
Details: not given

**Q.** With `O=[N+]([O-])c1cn2c(n1)OC(COc1ncc(C(F)(F)F)cn1)CC2` (stereo not drawn) as the compound, how does the IC50 read?
**A.** > 64 µM

**Q.** Which IC50 does the source give for `CC1(COc2ccc(Oc3ccccc3)cc2)CCn2cc([N+](=O)[O-])nc2O1` (stereo not drawn) here?
**A.** 0.17 µM

**Q.** For `CC1(COc2ccc(F)cn2)CCn2cc([N+](=O)[O-])nc2O1` (stereo not drawn), which IC50 is on record?
**A.** 1.6 µM

**Q.** With `CC1(COc2ncc(Cl)cn2)CCn2cc([N+](=O)[O-])nc2O1` (stereo not drawn) as the compound, how does the IC50 read?
**A.** > 64 µM

**Q.** For `CC1(COc2ncc(C(F)(F)F)cn2)CCn2cc([N+](=O)[O-])nc2O1` (stereo not drawn), which IC50 is on record?
**A.** > 64 µM

**Q.** For `CC1(COc2ccc(F)nc2)CCn2cc([N+](=O)[O-])nc2O1` (stereo not drawn), which IC50 is on record?
**A.** 7.1 µM

**Q.** For `CC1(COc2cnc(C(F)(F)F)cn2)CCn2cc([N+](=O)[O-])nc2O1` (stereo not drawn), which IC50 is on record?
**A.** 2.2 µM

System: not listed separately
Assay: Stability of compound in human liver microsomes assessed as percentage of parent compound remaining at 1 uM measured after 1 hr
Details: not given

**Q.** With `CC1(COc2ncc(C(F)(F)F)cn2)CCn2cc([N+](=O)[O-])nc2O1` (stereo not drawn) as the compound, how does the remaining at 1 h, 1 µM read?
**A.** 88%

**Q.** Which remaining at 1 h, 1 µM does the source give for `CC1(COc2cnc(C(F)(F)F)cn2)CCn2cc([N+](=O)[O-])nc2O1` (stereo not drawn) here?
**A.** 91%

System: Mycobacterium tuberculosis
Assay: Antitubercular activity against Mycobacterium tuberculosis H37Rv assessed as reduction in microbial growth under anaerobic condition by luminescence analysis
Format: functional
Details: not given

**Q.** Which MIC does the source give for `CC1(COc2ccc(Oc3ccccc3)cc2)CCn2cc([N+](=O)[O-])nc2O1` (stereo not drawn) here?
**A.** 2.7 µM

**Q.** For `CC1(COc2ccc(F)cn2)CCn2cc([N+](=O)[O-])nc2O1` (stereo not drawn), which MIC is on record?
**A.** 19 µM

System: not listed separately
Assay: Selectivity index, ratio IC50 for cytotoxicity against human MRC5 cells to IC50 for antileishmanial activity against Leishmania infantum MHOM/MA(BE)/67 amastigotes infected in macrophages
Details: not given

**Q.** With `CC1(COc2ccc(Oc3ccccc3)cc2)CCn2cc([N+](=O)[O-])nc2O1` (stereo not drawn) as the compound, how does the selectivity ratio read?
**A.** > 376

**Q.** For `CC1(COc2ccc(F)cn2)CCn2cc([N+](=O)[O-])nc2O1` (stereo not drawn), which selectivity ratio is on record?
**A.** > 40

**Q.** For `CC1(COc2ccc(F)nc2)CCn2cc([N+](=O)[O-])nc2O1` (stereo not drawn), which selectivity ratio is on record?
**A.** > 9

**Q.** With `CC1(COc2cnc(C(F)(F)F)cn2)CCn2cc([N+](=O)[O-])nc2O1` (stereo not drawn) as the compound, how does the selectivity ratio read?
**A.** > 29

System: Trypanosoma cruzi
Assay: Antitrypanosomal activity against Trypanosoma cruzi Tulahuen CL2 infected in human MRC-5 cells assessed as parasite growth
Format: functional, organism-based
Details: Tulahuen CL2, MRC5

**Q.** For `O=[N+]([O-])c1cn2c(n1)OC(COc1ncc(C(F)(F)F)cn1)CC2` (stereo not drawn), which IC50 is on record?
**A.** 3.3 µM

**Q.** Which IC50 does the source give for `CC1(COc2ccc(Oc3ccccc3)cc2)CCn2cc([N+](=O)[O-])nc2O1` (stereo not drawn) here?
**A.** 0.25 µM

**Q.** For `CC1(COc2ccc(F)cn2)CCn2cc([N+](=O)[O-])nc2O1` (stereo not drawn), which IC50 is on record?
**A.** 3.3 µM

**Q.** Which IC50 does the source give for `CC1(COc2ncc(Cl)cn2)CCn2cc([N+](=O)[O-])nc2O1` (stereo not drawn) here?
**A.** 3.7 µM

**Q.** With `CC1(COc2ncc(C(F)(F)F)cn2)CCn2cc([N+](=O)[O-])nc2O1` (stereo not drawn) as the compound, how does the IC50 read?
**A.** 3.1 µM

**Q.** With `CC1(COc2ccc(F)nc2)CCn2cc([N+](=O)[O-])nc2O1` (stereo not drawn) as the compound, how does the IC50 read?
**A.** 4.3 µM

**Q.** Which IC50 does the source give for `CC1(COc2cnc(C(F)(F)F)cn2)CCn2cc([N+](=O)[O-])nc2O1` (stereo not drawn) here?
**A.** 0.94 µM

System: not listed separately
Assay: Stability of compound in CD-1 mouse liver microsomes assessed as percentage of parent compound remaining at 1 uM measured after 1 hr
Details: not given

**Q.** With `CC1(COc2ncc(C(F)(F)F)cn2)CCn2cc([N+](=O)[O-])nc2O1` (stereo not drawn) as the compound, how does the remaining at 1 h, 1 µM read?
**A.** 86%

**Q.** For `CC1(COc2cnc(C(F)(F)F)cn2)CCn2cc([N+](=O)[O-])nc2O1` (stereo not drawn), which remaining at 1 h, 1 µM is on record?
**A.** 90%

System: Mycobacterium tuberculosis
Assay: Antitubercular activity against Mycobacterium tuberculosis H37Rv assessed as reduction in microbial growth under aerobic condition by luminescence analysis
Format: functional
Details: not given

**Q.** With `CC1(COc2ccc(Oc3ccccc3)cc2)CCn2cc([N+](=O)[O-])nc2O1` (stereo not drawn) as the compound, how does the MIC read?
**A.** 0.7 µM

**Q.** For `CC1(COc2ccc(F)cn2)CCn2cc([N+](=O)[O-])nc2O1` (stereo not drawn), which MIC is on record?
**A.** 2.3 µM

System: Leishmania donovani
Assay: Antileishmanial activity against Leishmania donovani amastigotes infected in mouse J774A.1 cells incubated for 72 hrs by luciferase assay
Format: functional, organism-based
Details: J774.A1, 72 h

**Q.** With `CC1(COc2ccc(Oc3ccccc3)cc2)CCn2cc([N+](=O)[O-])nc2O1` (stereo not drawn) as the compound, how does the IC50 read?
**A.** 0.17 µM

**Q.** With `CC1(COc2ccc(F)cn2)CCn2cc([N+](=O)[O-])nc2O1` (stereo not drawn) as the compound, how does the IC50 read?
**A.** 0.26 µM

**Q.** With `CC1(COc2ncc(Cl)cn2)CCn2cc([N+](=O)[O-])nc2O1` (stereo not drawn) as the compound, how does the IC50 read?
**A.** 0.32 µM

**Q.** Which IC50 does the source give for `CC1(COc2ccc(F)nc2)CCn2cc([N+](=O)[O-])nc2O1` (stereo not drawn) here?
**A.** 0.6 µM

System: not listed separately
Assay: Stability of compound in hamster liver microsomes assessed as percentage of parent compound remaining at 1 uM measured after 1 hr
Details: chinese hamster

**Q.** With `CC1(COc2ncc(C(F)(F)F)cn2)CCn2cc([N+](=O)[O-])nc2O1` (stereo not drawn) as the compound, how does the remaining at 1 h, 1 µM read?
**A.** 40%

**Q.** With `CC1(COc2cnc(C(F)(F)F)cn2)CCn2cc([N+](=O)[O-])nc2O1` (stereo not drawn) as the compound, how does the remaining at 1 h, 1 µM read?
**A.** 36%

System: not listed separately
Assay: Kinetic solubility of compound in water at pH7 by HPLC analysis
Details: pH 7

**Q.** For `CC1(COc2ncc(C(F)(F)F)cn2)CCn2cc([N+](=O)[O-])nc2O1` (stereo not drawn), which solubility kinetic is on record?
**A.** 9.3 µg/mL (≈ 25.9 µM)

**Q.** With `CC1(COc2cnc(C(F)(F)F)cn2)CCn2cc([N+](=O)[O-])nc2O1` (stereo not drawn) as the compound, how does the solubility kinetic read?
**A.** 17 µg/mL (≈ 47.3 µM)

System: Leishmania donovani
Assay: Antileishmanial activity against Leishmania donovani amastigotes infected in BALB/C mouse assessed as reduction in parasite burden in liver tissue at 50 mg/kg, po administered once per day for 5 days relative to control
Format: functional
Details: 120 h, time 5 day

**Q.** With `CC1(COc2ncc(C(F)(F)F)cn2)CCn2cc([N+](=O)[O-])nc2O1` (stereo not drawn) as the compound, how does the inhibition in vivo at 50 mg/kg read?
**A.** 35%

**Q.** With `CC1(COc2cnc(C(F)(F)F)cn2)CCn2cc([N+](=O)[O-])nc2O1` (stereo not drawn) as the compound, how does the inhibition in vivo at 50 mg/kg read?
**A.** 17%

Reference: ChEMBL document CHEMBL5036301, “Heteroaryl ether analogues of an antileishmanial 7-substituted 2-nitroimidazooxazine lead afford attenuated hERG risk: In vitro and in vivo appraisal” (Eur J Med Chem, 2021)
